Source: US20120231482A1, “METHOD, KIT OR DIAGNOSTIC FOR THE DETECTION OF REAGENTS WHICH INDUCE ALTERED CONTRACTILITY” (THE JOHNS HOPKINS UNIVERSITY, priority 2009, published 2012)

Target: T1, tropomyosin (Rattus norvegicus, UniProt P04692)
T1 construct: Rat myofibrillar preparations, as described in [7], were obtained from frozen ventricles (Pel Freez Biologicals); tissue Pel Freez Biologicals; host or cells: myofibrils from frozen rat ventricles
Assay: Gel shift assay, reducing/non-reducing western blot of cardiac myofibrils
Assay type: biochemical
Conditions: non-reducing; lost with 5 mM DTT
Description: FIG. 4. Validation and characterizations of HNO modifications. 1 μg of rat cardiac myofibrils treated with HNO donors or control compounds were separated under reducing or nonreducing conditions and western blots probed for candidate proteins tropomyosin, actin, myosin heavy chain, myosin light chain 1 (n=4). […] Silver stained gel analysis indicated a protein band with […] gel mobility that was lost with DTT.
FIG. 5. Evaluation of the interaction between actin and tropomyosin with NCA treatment. Purified rabbit skeletal tropomyosin (0.03 μg) and isolated rat cardiac myofibrils (1 μg) were treated with NCA or AS and evaluated by 1D non-reducing western blot probing for tropomyosin (A) and actin (B) (n=3). […] (C) Fluorescent DIGE analysis of samples from A and B independent labeled indicates NCA specific band (green) above purified TM (blue) and below AS treated myofibrils (red) (n=3). (D) MS analysis of the same gel region identified both tropomyosin and actin in non-reduced lane but not with DTT treatment (n=2).
Gel shift assay. 10 μg of rat myofibrils/treatment were diluted to 0.5 μg/μl in HEN including 0.1% (w/v) SDS and exposed to a treatment for 20 min at 37° C. Samples were diluted to 0.1 ug/ul in 1×LSD sample buffer, treated with 0, 5 or 100 mM DTT and separated by SDS PAGE. Proteins were silver stained or transferred to nitrocellulose and immunoblotted with primary antibodies for tropomyosin sarcomeric (CH1, Sigma-Aldrich Co., St. Louis, Mo., USA), actin (AC-40, Sigma-Aldrich Co., St. Louis, Mo., USA), myosin light chain 1 (MLM527, Abcam, Cambridge, Mass., USA) or myosin heavy chain (3-48, Abcam, Cambridge, Mass., USA). For some silver stained gel bands of interest in-gel digestion was done following the protocol outlined in Shevchenko et al.. Gel slices of interest were excised from the gels cut into 1 mm^3 pieces. Silver stained gel pieces were destained in 1:1(v/v) 30 mM Potassium ferricyanide and 100 mM Sodium thiosulfate and wash three times with ddH2O. Gel pieces were dehydrated in 100% acetonitrile and reswelled in 10 mM DTT and incubated at 55° C. for 1 hour. After the DTT solution was removed, a solution of 55 mM iodoacetimide was added and gel slices were incubated at room temperature protected from light. Gel slices were then washed 3 times with 50% (v/v) ACN, 25 mM (NH4)HCO3 and then fully dehydrated in 100% ACN and dried in a speed vac. Gel pieces were reswelled in a 12.5 ng/μL trypsin (Promega, Madison Wis. USA) solution containing 25 mM (NH4)HCO3 and incubated at 37° C. for >16 hours. Digested peptides were extracted by addition of 5% (v/v) formic acid and incubation for 15 min followed by addition of an equal volume of 100% ACN and 15 min incubation, this step was repeated and the extracts were combined. […]

T1 sequence (P04692 whole entry): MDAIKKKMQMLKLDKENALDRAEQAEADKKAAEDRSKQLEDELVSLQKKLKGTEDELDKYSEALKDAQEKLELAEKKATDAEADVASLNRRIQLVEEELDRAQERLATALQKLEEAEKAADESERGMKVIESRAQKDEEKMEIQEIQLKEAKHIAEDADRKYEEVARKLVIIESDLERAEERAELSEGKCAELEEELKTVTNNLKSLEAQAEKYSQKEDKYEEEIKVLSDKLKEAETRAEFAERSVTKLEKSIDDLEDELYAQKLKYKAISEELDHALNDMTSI

**Q.** `CC(=O)OC1(N=O)CCCCC1` [NCA, 1-nitrosocyclohexylacetate] was tested. Which “tropomyosin molecular weight shift” value did it give?
**A.** higher molecular weight species that was specific for NCA treatment
